According to patent US12286425B2, “Herbicidally active bicyclic benzamides” (Bayer Aktiengesellschaft, priority 2018, dated 2025):

What was measured:
Format in all cases: in vivo
[1] = test system: monocotyledonous and dicotyledonous weed plants and crop plants; assay: Pre-emergence herbicidal action and crop plant compatibility (PE), other species and comparison with A-117; settings: for Herbicidal activity ABUTH: Abutilon theophrasti; for Herbicidal activity AMARE: Amaranthus retroflexus; for Herbicidal activity MATIN: Matricaria inodora; for Herbicidal activity STEME: Stellaria media; for Herbicidal activity VIOTR: Viola tricolor; for Herbicidal activity CYPES: Cyperus esculentus; for Herbicidal activity ECHCG: Echinochloa crus-galli; for Herbicidal activity POLCO: Polygonum convolvulus
From the text: (§1) 1. Pre-emergence herbicidal action and crop plant compatibility (pre-emergence, PE) Seeds of monocotyledonous and dicotyledonous weed plants and crop plants are placed in plastic or organic planting pots and covered with soil. The compounds of the invention, formulated in the form of wettable powders (WP) or as emulsion concentrates (EC), are then applied onto the surface of the covering soil as aqueous suspension or emulsion with addition of 0.5% additive at a water application rate of […] (converted). After the treatment, the pots are placed in a greenhouse and kept under good growth conditions for the trial plants. After about 3 weeks, the effect of the preparations is scored visually in comparison with untreated controls as percentages. The tables below show the herbicidal activity of numerous compounds according to the invention against important harmful plants. For example, 100% activity=the plants have died, 0% activity=like control plants.
(§2) In a comparative experiment, by way of example, the herbicidal activity of compound No. 2-13 according to the invention was compared to that of compound No. A-117 known from WO 2013/076315 A2.

SETVI = assay: Pre-emergence herbicidal action (PE), greenhouse pot test, SETVI; settings: for Herbicidal activity SETVI: pre-emergence (PE)
From the text: as §1

[2] = test system: monocotyledonous and dicotyledonous weeds and crop plants; assay: Post-emergence herbicidal action and crop plant compatibility (PO), including comparison with A-117; settings: for Herbicidal activity ABUTH / Herbicidal activity AMARE / Herbicidal activity ECHCG / Herbicidal activity STEME / Herbicidal activity VIOTR / Herbicidal activity VERPE / Herbicidal activity ALOMY / herbicidal activity AVEFA / Herbicidal activity PHBPU / Herbicidal activity LOLMU / Herbicidal activity MATIN / Herbicidal activity POLCO / Herbicidal activity SETVI / Herbicidal activity CYPES: post-emergence (PO); for Herbicidal activity ABUTH: Abutilon theophrasti; for Herbicidal activity AMARE: Amaranthus retroflexus; for Herbicidal activity ECHCG: Echinochloa crus-galli; for Herbicidal activity STEME: Stellaria media; for Herbicidal activity VIOTR: Viola tricolor; for Herbicidal activity VERPE: Veronica persica; for Herbicidal activity ALOMY: Alopecurus myosuroides; for herbicidal activity AVEFA: Avena fatua; for Herbicidal activity PHBPU: Ipomoea purpurea; for Herbicidal activity LOLMU: Lolium multiflorum; for Herbicidal activity MATIN: Matricaria inodora; for Herbicidal activity POLCO: Polygonum convolvulus; for Herbicidal activity SETVI: Setaria viridis; for Herbicidal activity CYPES: Cyperus esculentus
Protocol: 2. Post-emergence herbicidal action and crop plant compatibility (post-emergence, PO) Seeds of monocotyledonous and dicotyledonous weeds and crop plants are placed in sandy loam in plastic or organic planting pots, covered with soil and cultivated in a greenhouse under controlled growth conditions. 2 to 3 weeks after sowing, the test plants are treated at the one-leaf stage. The compounds of the invention, formulated in the form of wettable powders (WP) or as emulsion concentrates (EC), are then sprayed onto the green parts of the plants as aqueous suspension or emulsion with addition of 0.5% additive at a water application rate of […] (converted). After the test plants had been kept in the greenhouse under optimum growth conditions for about 3 weeks, the activity of the preparations is rated visually in comparison to untreated controls. The tables below show the herbicidal activity of numerous compounds according to the invention against important harmful plants. For example, 100% activity=the plants have died, 0% activity=like control plants.
as §2

AVEFA = assay: Pre-emergence herbicidal action (PE), greenhouse pot test, AVEFA; settings: for herbicidal activity AVEFA: pre-emergence (PE), application rate 320, scored visually after about 3 weeks vs untreated controls, 100% = plants have died, 0% = like control plants
From the text: as §1

[3] = pre-emergence (PE), application rate 80, scored visually after about 3 weeks
[4] = application rate 20, rated visually after about 3 weeks
[5] = application rate 80, rated visually after about 3 weeks
[6] = pre-emergence (PE), application rate 320, scored visually after about 3 weeks
[7] = Setaria viridis, application rate 320, scored visually after about 3 weeks

SMILES | Herbicidal activity ECHCG [2, 5] [%] | Herbicidal activity VERPE [2, 5] [%] | Herbicidal activity VIOTR [2, 5] [%] | herbicidal activity AVEFA (AVEFA) [%] | Herbicidal activity ABUTH [1, 6] [%] | Herbicidal activity AMARE [1, 6] [%] | Herbicidal activity CYPES [1, 6] [%] | Herbicidal activity ECHCG [1, 6] [%] | Herbicidal activity MATIN [1, 6] [%] | Herbicidal activity POLCO [1, 6] [%] | Herbicidal activity STEME [1, 6] [%] | Herbicidal activity VIOTR [1, 6] [%] | Herbicidal activity SETVI (SETVI; [7]) [%] | Herbicidal activity ABUTH [2, 5] [%] | Herbicidal activity AMARE [2, 5] [%] | herbicidal activity AVEFA [2, 5] [%] | Herbicidal activity PHBPU [2, 5] [%] | Herbicidal activity POLCO [2, 5] [%] | Herbicidal activity SETVI [2, 5] [%] | Herbicidal activity STEME [2, 5] [%] | further results
Cn1nnnc1NC(=O)c1ccc(C(F)(F)F)c2c1SCCS2 [Example 2-5, 5-(trifluoromethyl)-2,3-dihydro-1,4-benzodithiine-N-(1-methyltetrazol-5-yl)-8-carboxamide] | – | – | – | – | – | – | – | – | – | – | – | – | – | – | – | – | – | – | – | – | Herbicidal activity ABUTH [1, 3]: 100%; Herbicidal activity AMARE [1, 3]: 100%; Herbicidal activity MATIN [1, 3]: 100%; Herbicidal activity STEME [1, 3]: 90%; Herbicidal activity VERPE ([1]; pre-emergence (PE), Veronica persica, application rate 80, scored visually after about 3 weeks): 90%; Herbicidal activity VIOTR [1, 3]: 100%; Herbicidal activity SETVI (SETVI; application rate 80, scored visually after about 3 weeks vs untreated controls, 100% = plants have died, 0% = like control plants): 90%; Herbicidal activity ABUTH [2, 4]: 90%; Herbicidal activity AMARE [2, 4]: 100%; Herbicidal activity ECHCG [2, 4]: 90%; Herbicidal activity STEME [2, 4]: 80%; Herbicidal activity VIOTR [2, 4]: 80%
Cn1nnnc1NC(=O)c1ccc(C(F)(F)F)c2c1S(=O)(=O)CCS2(=O)=O [Example 2-11] | 80 | 80 | 90 | – | – | – | – | – | – | – | – | – | – | – | – | – | – | – | – | – | Herbicidal activity ABUTH [1, 3]: 100%; Herbicidal activity AMARE [1, 3]: 80%; Herbicidal activity MATIN [1, 3]: 80%
Cn1nnnc1NC(=O)c1ccc(C(F)(F)F)c2c1OCCS2 [Example 2-13, 5-(trifluoromethyl)-2,3-dihydro-1,4-benzoxathiine-N-(1-methyltetrazol-5-yl)-8-carboxamide] | 90 | 100 | 100 | 80 | 100 | 100 | 90 | 100 | 100 | 80 | 90 | 100 | 100 | 100 | 90 | 90 | 90 | 80 | 90 | 90 | Herbicidal action against AVEFA (AVEFA; pre-emergence (PE) comparative experiment with A-117, Avena fatua, dosage 320 g/ha): 80%; Herbicidal action against ABUTH ([1]; pre-emergence (PE) comparative experiment with A-117, Abutilon theophrasti, dosage 320 g/ha): 100%; Herbicidal action against ALOMY ([1]; pre-emergence (PE) comparative experiment with A-117, Alopecurus myosuroides, dosage 320 g/ha): 90%; Herbicidal action against MATIN ([1]; pre-emergence (PE) comparative experiment with A-117, Matricaria inodora, dosage 320 g/ha): 100%; herbicidal activity compared to compound No. A-117 ([1]; pre-emergence comparative experiment, numerous harmful plants): superiority of the compound according to the invention was demonstrated clearly; Herbicidal action against SETVI (SETVI; pre-emergence (PE) comparative experiment with A-117, Setaria viridis, dosage 320 g/ha): 100%; Herbicidal action against ABUTH ([2]; post-emergence (PO) comparative experiment with A-117, Abutilon theophrasti, dosage 80 g/ha): 100%; Herbicidal action against ALOMY ([2]; post-emergence (PO) comparative experiment with A-117, Alopecurus myosuroides, dosage 80 g/ha): 90%; Herbicidal action against AVEFA ([2]; post-emergence (PO) comparative experiment with A-117, Avena fatua, dosage 80 g/ha): 90%; Herbicidal action against LOLMU ([2]; post-emergence (PO) comparative experiment with A-117, Lolium multiflorum, dosage 80 g/ha): 80%; Herbicidal action against POLCO ([2]; post-emergence (PO) comparative experiment with A-117, Polygonum convolvulus, dosage 80 g/ha): 80%; Herbicidal activity ALOMY [2, 5]: 90%; Herbicidal activity LOLMU [2, 5]: 80%; Herbicidal activity MATIN [2, 5]: 90%; herbicidal activity compared to compound No. A-117 ([2]; post-emergence comparative experiment, numerous harmful plants): superiority of the compound according to the invention was demonstrated clearly
Cn1nnnc1NC(=O)c1ccc(C(F)(F)F)c2c1OCC[S+]2[O-] (stereo not drawn) [Example 2-17, 5-(trifluoromethyl)-2,3-dihydro-1,4-benzoxathiine-N-(1-methyltetrazol-5-yl)-8-carboxamide 4-oxide] | 90 | 100 | 100 | 80 | 100 | 100 | 100 | 100 | 90 | – | 100 | 100 | 100 | 100 | 90 | 100 | 100 | 90 | 90 | 100 | Herbicidal activity ALOMY [2, 5]: 90%; Herbicidal activity CYPES [2, 5]: 100%; Herbicidal activity LOLMU [2, 5]: 90%; Herbicidal activity MATIN [2, 5]: 90%
Cn1nnnc1NC(=O)c1ccc(C(F)(F)F)c2c1OCCS2(=O)=O [Example 2-20, 5-(trifluoromethyl)-2,3-dihydro-1,4-benzoxathiine-N-(1-methyltetrazol-5-yl)-8-carboxamide 4,4-dioxide] | 90 | 100 | 100 | 100 | 100 | 100 | 100 | 100 | 100 | 100 | 90 | 100 | 100 | 100 | 100 | 80 | 90 | 100 | 90 | 90 | Herbicidal activity ALOMY [2, 5]: 80%; Herbicidal activity CYPES [2, 5]: 80%; Herbicidal activity LOLMU [2, 5]: 80%; Herbicidal activity MATIN [2, 5]: 100%
Cn1nnnc1NC(=O)c1ccc(C(F)(F)F)c2c1OCC(Cl)S2 (stereo not drawn) [Example 2-41] | – | – | – | – | – | – | – | – | – | – | – | – | – | – | 90 | – | – | – | – | – | –
CCn1nnnc1NC(=O)c1ccc(C(F)(F)F)c2c1OCCS2 [Example 3-13, 5-(trifluoromethyl)-2,3-dihydro-1,4-benzoxathiine-N-(1-ethyltetrazol-5-yl)-8-carboxamide] | 100 | – | 100 | 80 | 100 | 100 | 100 | 100 | 90 | 90 | 100 | 100 | 100 | 100 | 90 | 90 | 90 | 100 | 90 | 100 | –
